According to patent US20220125771A1, “S[…], ANALOGUES THEREOF, AND METHODS USING SAME” (priority 2019, published 2022):
Like-named read-outs stand apart in the source and are kept apart here.

System: HBsAg in HepG2.2.15 cells
Assay: HBsAg Assay: inhibition of HBsAg in HepG2.2.15 cells (CLIA immunoassay of supernatant)
Assay type: cell-based, hepatitis B virus
Conditions: supernatant collected at day 6 after exposure of compounds, final DMSO 0.5%
Description: Inhibition of HBsAg was determined in HepG2.2.15 cells. Cells were maintained in culture medium containing 10% fetal calf serum, […], Glutamine, penicillin/streptomycin. Cells were seeded in 96-well collagen-coated plate at a density of 30,000 cells/well. Serially diluted compounds were added to cells next day at the final DMSO concentration of 0.5%. Cells were incubated with compounds for 2-3 days, after which medium was removed. Fresh medium containing compounds was added to cells for additional 3-4 days. At day 6 after exposure of compounds, supernatant was collected, the HBsAg immunoassay (microplate-based chemiluminescence immunoassay kits, CLIA, Autobio Diagnosics Co., Zhengzhou, China, Catalog #CL0310-2) was used to determine the level of HBsAg according to manufactory instruction. Dose-response curves were generated and the EC50 value (effective concentrations that achieved 50% inhibitory effect) were determined using XLfit software. In addition, cells were seeded at a density of 5,000 cells/well for determination of cell viability in the presence and absence of compounds by using CellTiter-Glo reagent (Promega). Tables 1-3 show EC50 values obtained by the HBsAg assay for selected compounds.

[1] = Hepatitis B virus, HepG2.2.15, 144 h, read-out: sAg EC50, μM, HepG2.2.15 cells
[2] = read-out: sAg EC50, HepG2.2.15 cells

Row | Compound | EC50 [1] [µM] | EC50 [2] [µM]
1 | COc1nc2c(c3ccccc13)CC(C(C)(C)C)c1cc(C(=O)O)c(=O)n(C)c1-2 (stereo not shown) [Example 43, 12-(tert-Butyl)-6-methoxy-4-methyl-3-oxo-3,4,11,12-tetrahydrobenzo[c][1,10]phenanthroline-2-carboxylic Acid] | 0.023 | –
2 | CCN1CCCc2c3c(cc(OC(F)F)c21)-c1[nH]c(=O)c(C(=O)O)cc1C(C(C)(C)C)C3 (stereo not shown) [Example 34, 6-(tert-Butyl)-12-(difluoromethoxy)-1-ethyl-9-oxo-1,2,3,4,5,6,9,10-octahydroquinolino[7,8-f]quinoline-8-carboxylic Acid] | 0.012 | –
3 | COc1cccn2c3c(nc12)-c1[nH]c(=O)c(C(=O)O)cc1C(C(C)(C)C)C3 (single isomer, unassigned) [Example 14, 5-(tert-Butyl)-11-methoxy-2-oxo-1,2,5,6-tetrahydropyrido[2′,1′:2,3]imidazo[4,5-h]quinoline-3-carboxylic Acid] | – | 0.012
4 | CC(C)C1Cc2cc(C(=O)O)c(=O)[nH]c2-c2nc3c(OC(F)F)cccn3c21 (single isomer, unassigned) [Example 20, 11-(Difluoromethoxy)-6-isopropyl-2-oxo-1,2,5,6-tetrahydropyrido[2′,1′:2,3]imidazo[4,5-h]quinoline-3-carboxylic Acid] | – | 0.099
5 | CC(C)(C)C1Cc2c(cc(OC(F)F)c3ncccc23)-c2[nH]c(=O)c(C(=O)O)cc21 (single isomer, unassigned) [Example 37, 6-(tert-Butyl)-12-(difluoromethoxy)-9-oxo-5,6,9,10-tetrahydroquinolino[7,8-f]quinoline-8-carboxylic Acid] | – | 0.003
6 | COc1cccn2c3c(nc12)-c1[nH]c(=O)c(C(=O)O)cc1C(C(C)(C)C)C3 (single isomer, unassigned) [Example 15, 5-(tert-Butyl)-11-methoxy-2-oxo-1,2,5,6-tetrahydropyrido[2′,1′:2,3]imidazo[4,5-h]quinoline-3-carboxylic Acid] | – | 1
7 | COc1[nH]c2c(c(=O)c1C(=O)O)C(C(C)(C)C)Cc1c-2cc(OC(F)F)c2ncccc12 (stereo not shown) [Example 47, 6-(tert-butyl)-12-(difluoromethoxy)-9-methoxy-7-oxo-5,6,7,10-tetrahydroquinolino[7,8-f]quinoline-8-carboxylic Acid] | 0.14 | –
8 | CC(C)(C)C1Cn2c(nc3c(OC(F)F)cccc32)-c2[nH]c(=O)c(C(=O)O)c(O)c21 (stereo not shown) [Example 25, 5-(tert-Butyl)-11-(difluoromethoxy)-4-hydroxy-2-oxo-1,2,5,6-tetrahydrobenzo[4,5]imidazo[1,2-h][1,7]naphthyridine-3-carboxylic Acid] | 0.004 | –
9 | COc1cccc2c1nc1n2CC(C(C)(C)C)c2c-1[nH]c(=O)c(C(=O)O)c2O (stereo not shown) [Example 24, 5-(tert-Butyl)-4-hydroxy-11-methoxy-2-oxo-1,2,5,6-tetrahydrobenzo[4,5]imidazo[1,2-h][1,7]naphthyridine-3-carboxylic Acid] | 0.02 | –
10 | COCCOc1cccc2c1cc1n2CC(C(C)(C)C)c2c-1[nH]c(=O)c(C(=O)O)c2O (stereo not shown) [Example 6, 5-(tert-Butyl)-4-hydroxy-11-(2-methoxyethoxy)-2-oxo-1,2,5,6-tetrahydroindolo[1,2-h][1,7] naphthyridine-3-carboxylic Acid] | 0.76 | –
11 | CC(C)(C)C1Cn2c(cc3c(OC(F)F)cccc32)-c2[nH]c(=O)c(C(=O)O)c(O)c21 (stereo not shown) [Example 1, 5-(tert-Butyl)-11-(difluoromethoxy)-4-hydroxy-2-oxo-1,2,5,6-tetrahydroindolo[1,2-h][1,7]naphthyridine-3-carboxylic Acid] | 0.009 | –
12 | CC(C)C1Cc2cc(C(=O)O)c(=O)[nH]c2-c2nc3c(OC(F)F)cccn3c21 (single isomer, unassigned) [Example 21, 11-(Difluoromethoxy)-6-isopropyl-2-oxo-1,2,5,6-tetrahydropyrido[2′,1′:2,3]imidazo[4,5-h]quinoline-3-carboxylic Acid] | – | 6
13 | COCCCN1CCCc2c3c(cc(OC(F)F)c21)-c1[nH]c(=O)c(C(=O)O)cc1C(C(C)(C)C)C3 (stereo not shown) [Example 30, 6-(tert-Butyl)-12-(difluoromethoxy)-1-(3-methoxypropyl)-9-oxo-1,2,3,4,5,6,9,10-octahydroquinolino[7,8-f]quinoline-8-carboxylic Acid] | 0.2 | –
14 | CC(C)(C)C1Cc2c(cc(OC(F)F)c3ncccc23)-c2[nH]c(=O)c(C(=O)O)cc21 (single isomer, unassigned) [Example 38, 6-(tert-butyl)-12-(difluoromethoxy)-9-oxo-5,6,9,10-tetrahydroquinolino[7,8-f]quinoline-8-carboxylic Acid] | – | 3
15 | COc1ccn2c3c(nc2c1OC)-c1[nH]c(=O)c(C(=O)O)cc1C(C(C)(C)C)C3 (single isomer, unassigned) [Example 19, 5-(tert-Butyl)-10,11-dimethoxy-2-oxo-1,2,5,6-tetrahydropyrido[2′,1′:2,3]imidazo[4,5-h]quinoline-3-carboxylic Acid] | – | 8
16 | CC(C)(C)C1Cn2c(cc3c(OC(F)F)cccc32)-c2[nH]c(=O)c(C(=O)O)c(O)c21 (single isomer, unassigned) [Example 2, 5-(tert-Butyl)-11-(difluoromethoxy)-4-hydroxy-2-oxo-1,2,5,6-tetrahydroindolo[1,2-h][1,7]naphthyridine-3-carboxylic Acid] | – | 1
17 | CC(=O)N1CCCc2c3c(cc(OC(F)F)c21)-c1[nH]c(=O)c(C(=O)O)cc1C(C(C)(C)C)C3 (stereo not shown) [Example 31, 1-Acetyl-6-(tert-butyl)-12-(difluoromethoxy)-9-oxo-1,2,3,4,5,6,9,10-octahydroquinolino[7,8-f]quinoline-8-carboxylic Acid] | 0.05 | –
18 | Cn1c2c(cc(C(=O)O)c1=O)C(C(C)(C)C)Cc1c-2cc(OC(F)F)c2ncccc12 (single isomer, unassigned) [Example 39, 6-(tert-Butyl)-12-(difluoromethoxy)-10-methyl-9-oxo-5,6,9,10-tetrahydroquinolino[7,8-f]quinoline-8-carboxylic Acid] | – | 10
19 | CN1CCCc2c3c(cc(OC(F)F)c21)-c1[nH]c(=O)c(C(=O)O)cc1C(C(C)(C)C)C3 (single isomer, unassigned) [Example 33, 6-(tert-Butyl)-12-(difluoromethoxy)-1-methyl-9-oxo-1,2,3,4,5,6,9,10-octahydroquinolino[7,8-f]quinoline-8-carboxylic Acid] | – | 0.3
20 | COc1nc2c(c3ccccc13)CC(C(C)(C)C)c1cc(C(=O)O)c(=O)[nH]c1-2 (single isomer, unassigned) [Example 42, 12-(tert-Butyl)-6-methoxy-3-oxo-3,4,11,12-tetrahydrobenzo[c][1,10]phenanthroline-2-carboxylic Acid] | – | 0.075
21 | CC(C)(C)C1Cc2c(nc3c(OC(F)F)cccn23)-c2[nH]c(=O)c(C(=O)O)c(O)c21 (single isomer, unassigned) [Example 7, 5-(tert-Butyl)-11-(difluoromethoxy)-4-hydroxy-2-oxo-1,2,5,6-tetrahydropyrido[2′,1′:2,3]imidazo[4,5-h]quinoline-3-carboxylic Acid] | – | 0.002
22 | Cn1c2c(cc(C(=O)O)c1=O)C(C(C)(C)C)Cc1c-2nc(Cl)c2ccccc12 (single isomer, unassigned) [Example 45, 12-(tert-Butyl)-6-chloro-4-methyl-3-oxo-3,4,11,12-tetrahydrobenzo[c][1,10]phenanthroline-2-carboxylic Acid] | – | 1
23 | COc1c(C(=O)O)c(=O)c2c(n1C)-c1cc(OC(F)F)c3ncccc3c1CC2C(C)(C)C (stereo not shown) [Example 46, 6-(tert-Butyl)-12-(difluoromethoxy)-9-methoxy-10-methyl-7-oxo-5,6,7,10-tetrahydroquinolino[7,8-f]quinoline-8-carboxylic Acid] | 0.3 | –
24 | COc1cccc2c1nc1n2CC(C(C)(C)C)c2cc(C(=O)O)c(=O)[nH]c2-1 (single isomer, unassigned) [Example 28, 5-(tert-Butyl)-11-methoxy-2-oxo-1,2,5,6-tetrahydrobenzo[4,5]imidazo[1,2-h][1,7]naphthyridine-3-carboxylic Acid] | – | 0.093
25 | COc1ccn2c3c(nc2c1OC)-c1[nH]c(=O)c(C(=O)O)cc1C(C(C)(C)C)C3 (single isomer, unassigned) [Example 18, 5-(tert-Butyl)-10,11-dimethoxy-2-oxo-1,2,5,6-tetrahydropyrido[2′,1′:2,3]imidazo[4,5-h]quinoline-3-carboxylic Acid] | – | 0.005
